Melting point data for 63 molecules are collected here from a melting point compilation (Tetko et al.; mined from patent text by program, amines drawn as free bases though some values may be those of a salt).

Broadly, the melting point is the temperature of the solid-liquid transition.

In turn, `Nc1ncnc2c1ncn2C(c1ccccc1)(c1ccccc1)c1ccccc1` had a melting point of 260 to 262 °C.

The molecule `Clc1ccc(Cn2ccc3cc(OCc4ccncc4)ccc32)cc1` returned a melting point of 105 to 107 °C.

For `Cc1ccc2c(c1)C1(COc3cc4c(cc31)OCO4)C(=O)N2` (stereo not drawn), the melting point was in the range of 269 to 271 °C.

Regarding `Nc1cc2c(cn1)CC(c1ccc(Cl)cc1Cl)c1ccccc1-2` (stereo not drawn), the melting point lay in the range of 189 to 193 °C.

Turning to `CC(C)n1c(C=O)c(-c2ccc(F)cc2)c(-c2ccccc2)c1C(=O)NCc1ccc(F)cc1`, the melting point lay within 171 to 172 °C.

Take `Cn1cc(C2=C(c3ccc4ccccc4c3)C(=O)NC2=O)c2ccccc21`: the melting point is 180 to 184 °C.

Regarding `COC(=O)c1ccc(Cc2cc3cc(Cl)ccc3n2S(=O)(=O)c2ccc(C(C)C)cc2)cc1F`, the melting point is 127 °C.

`CCc1cccc(C)c1CNc1cc(Br)cc2c1nc(C)n2COCc1ccccc1` had a melting point of 117 to 119 °C.

`COc1ccc(Cn2c(=O)[nH]c3ncccc3c2=O)cc1` displayed a melting point of 272 to 273 °C.

`O=C(CCCN1CCC2(CC1)OC(=O)c1ccccc12)c1ccc(F)cc1` showed a melting point of 183 to 184 °C.

On to `CCOC(=O)C(=O)c1csc(NC(=O)Nc2ccccc2)n1`, for which the melting point lay in the range of 217 to 220 °C.

`COc1cc(F)ccc1OCC#Cc1ccc(Cl)nc1` returned a melting point of 86 to 87 °C.

For the molecule `COc1ccc(C(=O)c2ccc(-n3ccnc3)cc2)cc1OC`, the melting point lay within 149 to 151 °C.

As for `O=C1c2cccc([N+](=O)[O-])c2C(=O)N1c1ccc(O)cc1`, the melting point stood at 202 °C.

`COC(=O)COc1ccc2cc(CNC(=O)c3cnn(-c4ccc(Cl)cc4)c3C(F)(F)F)ccc2c1Br` gave a melting point of 206 to 207 °C.

`CCn1c(C)c(C(c2ccco2)S(=O)(=O)c2ccc(C)cc2)c2ccccc21` (stereo not drawn) gave a melting point of 99.8 to 105 °C.

`CCCCc1ncc(/C=C2\C(=O)NC(=O)N2c2ccccc2)n1Cc1ccc(C(=O)O)cc1` displayed a melting point of 286 to 290 °C.

Consider `O=C(NCCc1ccccc1)[C@@H]1Cc2ccccc2N1S(=O)(=O)c1cccc(CNC(=O)C(F)(F)F)c1`, for which the melting point was determined as 70 °C.

Molecule `CCOC(=O)Cc1nc(-c2ccccc2)n(C)n1` registered a melting point of 82 to 83 °C.

`NS(=O)(=O)c1cccc(-c2cccc(-c3nc(-c4ccc(C(F)(F)F)nc4)cc(C(F)F)n3)c2)c1` had a melting point of 222 °C.

`COC(=O)C1=C(C)Nc2ccccc2SC1c1ccccc1` (stereo not drawn) registered a melting point of 154 to 156 °C.

As to `Oc1ncc(-c2cccc(Cl)c2)cn1`, the melting point lay within 235 to 236 °C.

In turn, `CC(C)(C)OC(=O)NC1CCN(CCO)CC1` gave a melting point of 66 °C.

For the molecule `CS(=O)(=O)c1ccc(C(=O)NCc2ccc3c(c2)CN(C2CCC(=O)NC2=O)C3=O)cc1` (stereo not drawn), the melting point lay within 260 to 262 °C.

In the case of `CCOCCOc1c(Cl)c(Sc2ccccc2N)c(OCCOCC)c2c1C(=N)NC2=N`, the melting point was 114 to 116 °C.

With `COc1cc(C(C)=O)ccc1OCCCN1CCN(c2csc3cc(F)ccc23)CC1`, the melting point lay in the range of 172 to 174 °C.

Take `CCCCc1nc2c(N)nc3cccnc3c2n1CCNC(=O)c1cccc(O)n1`: the melting point lay in the range of 258 to 260 °C.

The molecule `CS(=O)(=O)c1ccc(C2=CC(=O)C3(CCOCC3)O2)cc1` showed a melting point of 163 to 165 °C.

`CCN1c2ncc(CSc3ncnc4[nH]ncc34)cc2C(=O)N(C)c2ccc(Cl)nc21` showed a melting point of 128 to 130 °C.

The molecule `CCCC(CC(=O)Nc1cc(C(N)=O)ccc1C(C)(C)C)c1ccc(OC)cc1OC` (stereo not drawn) registered a melting point of 192 °C.

Regarding `N#CCCNC(=O)c1n[nH]cc1NC(=O)c1ccoc1`, the melting point was in the range of 250 to 252 °C.

`CNC(=S)OCc1nc(C(C)C)c(Sc2cc(Cl)cc(Cl)c2)n1C` gave a melting point of 119 to 121 °C.

For the molecule `CN(C)CCC1(CO)c2ccccc2N(C)c2cc(Cl)ccc21` (stereo not drawn), the melting point came out at 120 °C.

Molecule `CC(C)[C@H](C[C@H](N=[N+]=[N-])[C@@H]1C[C@@H](C(C)C)C(=O)O1)C(=O)O` gave a melting point of 56 to 58 °C.

`Fc1ccccc1COC1COC(CCl)OC1` (stereo not drawn) displayed a melting point of 60 to 62 °C.

For `CCOC(C)OCC(C)C1CCC2C3CC=C4CC(O)CC(O)C4(C)C3CCC12C` (stereo not drawn), the melting point fell in the range of 124 to 126 °C.

`CCOC(=O)c1ncn2c1CNC(=O)c1sccc1-2` yielded a melting point of 263 to 264 °C.

`O=C1NC(=O)c2c1cc1ccc3c(c1c2-c1ccc(Br)cc1)OCO3` returned a melting point of 324 to 327 °C.

Consider `c1ccc(-n2c(C3=NCCN3)cc3ccccc32)cc1`, for which the melting point was 180 to 182 °C.

In turn, `CCCCCNS(=O)(=O)NC(=O)/C(C)=C/c1ccc(OCCOC)cc1Oc1ncc(C(F)(F)F)cc1Cl` showed a melting point of 152 to 153 °C.

`CC(=O)n1cc(C#N)c(-c2cccc(Cl)c2Cl)c1` displayed a melting point of 136 to 137 °C.

The molecule `Cc1ccc2nc(CO)cc(Cl)c2c1` gave a melting point of 147 to 148 °C.

Consider `CN(c1ncc(Br)cn1)[C@H]1CC[C@H](C#CCO)CC1`, for which the melting point was 156 to 157 °C.

`C#CCc1c(-c2ccccc2)nc(C)n(C)c1=O` had a melting point of 142 to 144 °C.

On to `Cn1c(C(F)(F)F)cc(=O)n(-c2cc(S(=O)(=O)NC(=O)OCc3ccccc3)c(Cl)cc2F)c1=O`, for which the melting point is 231 to 232 °C.

For the molecule `O=C1C(=O)c2ccccc2C2=C1SCC(CN1CCN(c3ccc(F)cc3)CC1)O2` (stereo not drawn), the melting point was in the range of 180 to 182 °C.

As for `C=C[C@@H]1CCC(=O)N1C(=O)[C@@H](C)Sc1cc(C(C)(C)C)c(O)c(C(C)(C)C)c1`, the melting point fell in the range of 105 to 106 °C.

`O=[N+]([O-])c1c[nH]c(-c2c(Cl)cc(C(F)(F)F)cc2Cl)n1` showed a melting point of 254 to 255 °C.

Take `NCCCOc1ccc2cc(CC(=O)O)c(=O)n(Cc3ccccc3)c2c1`: the melting point fell in the range of 126 to 128 °C.

In turn, `COc1cc(C(C)C)c2c(c1)S(=O)(=O)N(COC(=O)c1cccc(O)c1)C2=O` registered a melting point of 71 to 73 °C.

`CCCCCCC/C=C/C(=O)Nc1ccccc1`: the melting point lay within 54 to 55 °C.

For `O=[N+]([O-])c1ccccc1NN=Cc1ncc(C(F)(F)F)cc1Cl`, the melting point fell in the range of 127 to 135 °C.

`CC(=O)c1ccc(-c2ccccc2)c(F)c1`: the melting point is 97 to 97.5 °C.

`Nc1ccc2oc(Cc3ccccc3)cc2c1` displayed a melting point below 50 °C.

As to `Nc1nc2c(ncn2COC(CO)COC(=O)C2(N)CC2)c(=O)[nH]1` (stereo not drawn), the melting point was above 300 °C.

Molecule `S=C(NCCCN1CCN(Cc2ccc(Cl)cc2)CC1)Nc1ccccc1` had a melting point of 155 to 156 °C.

Molecule `CCOC(=O)CC(=O)c1ccc(N)cc1` yielded a melting point of 82 to 84 °C.

Regarding `CCC(CC)c1ccc(Cl)c2nc3n(c12)CCN3c1ccc(Br)cc1Cl`, the melting point lay in the range of 165 to 168 °C.

`COc1ccc(C=NNc2ccc(S(N)(=O)=O)cc2)cc1` displayed a melting point of 228 to 231 °C.

In the case of `Cc1cc(S(=O)(=O)N2c3ccccc3-c3ccc(F)cc3C2C)ccc1O` (stereo not drawn), the melting point worked out at 196 °C.

`Cc1cc(-n2ccnc2)c2cccc(OCc3c(Cl)ccc(S(=O)(=O)N4CCC[C@H]4C(=O)NCc4ccccc4)c3Cl)c2n1` came in with a melting point of 116 °C.

`COc1cc(C)c2ccc(N)nc2n1`: the melting point lay in the range of 233 to 236 °C.

Molecule `Cc1cc(C2=NN(C3=NCCS3)C(C)Cc3cc4c(cc32)OCO4)ccc1[N+](=O)[O-]` (stereo not drawn) displayed a melting point of 130 to 135 °C.
